In the supplement of paper PMC10307832:

Columns and labels:
Experiment in all cases: relative viability (nuclei count vs DMSO), 5 days (fraction); higher = more cells survive
[1] = compound: C1CNCCC1C2=CC(=NN2)C3=CC=NC=C3 + CC(C)C[C@H](NC(=O)[C@H](Cc1ccccc1)NC(=O)c1cnccn1)B(O)O [Bortezomib] (partner 0.002 µM)
How it was run: (§1)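 Lung cancer cell lines were seeded in 1536-well plates and dosed by pin tool the next day, with either a single drug or a fixed anchor-drug dose combined with five library-drug doses (not always all listed) spaced in √10 steps. Five days later, one step fixed the cells and stained their nuclei (final 0.05% Triton X-100, 1% formaldehyde, 1 ug/ml Hoechst), and nuclei were counted on 4× images. Relative viability is the nuclei count in treated wells divided by the count in vehicle wells, and each value is the median of duplicate plates.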

[2] = compound: C1CNCCC1C2=CC(=NN2)C3=CC=NC=C3 + C[C@]1(O)C[C@@H](c2nc(-c3ccc4ccc(-c5ccccc5)nc4c3)c3c(N)nccn32)C1 [Linsitinib] (partner 1 µM)
How it was run: as §1

[3] = compound: C1CNCCC1C2=CC(=NN2)C3=CC=NC=C3 + N=C(N)NC(=N)NCCc1ccccc1 [Phenformin] (partner 250 µM)
How it was run: as §1

Tanzisertib + Dasatinib = compound: O[C@H]1CC[C@H](Nc2ncc3nc(Nc4c(F)cc(F)cc4F)n([C@H]4CCOC4)c3n2)CC1 [Tanzisertib] + Cc1nc(Nc2ncc(C(=O)Nc3c(C)cccc3Cl)s2)cc(N2CCN(CCO)CC2)n1 [Dasatinib] (partner 0.075 µM)
How it was run: as §1

Cell Line: SK-LU-1
- relative viability ([1]; first compound 0.08 µM): 1
- relative viability ([1]; first compound 2.53 µM): 1.38
- relative viability ([1]; first compound 8 µM): 1.27
- relative viability ([2]; first compound 0.08 µM): 1.05
- relative viability ([2]; first compound 0.8 µM): 1.07
- relative viability ([2]; first compound 2.53 µM): 1.19
- relative viability ([2]; first compound 8 µM): 1.23
- relative viability ([3]; first compound 0.08 µM): 0.498
- relative viability ([3]; first compound 0.8 µM): 0.41
- relative viability ([3]; first compound 2.53 µM): 0.529
- relative viability ([3]; first compound 8 µM): 0.57
- relative viability (Tanzisertib + Dasatinib; first compound 0.08 µM): 0.212
- relative viability (Tanzisertib + Dasatinib; first compound 0.253 µM): 0.165
- relative viability (Tanzisertib + Dasatinib; first compound 0.8 µM): 0.18
- relative viability (Tanzisertib + Dasatinib; first compound 2.53 µM): 0.148
- relative viability (Tanzisertib + Dasatinib; first compound 8 µM): 0.165

Cell Line: LOU-NH91
- relative viability ([1]; first compound 0.08 µM): 0.52
- relative viability ([1]; first compound 0.8 µM): 0.503
- relative viability ([1]; first compound 2.53 µM): 0.484
- relative viability ([1]; first compound 8 µM): 0.498
- relative viability ([2]; first compound 0.08 µM): 0.85
- relative viability ([2]; first compound 0.8 µM): 1
- relative viability ([2]; first compound 2.53 µM): 1.14
- relative viability ([2]; first compound 8 µM): 0.962
- relative viability ([3]; first compound 0.08 µM): 0.771
- relative viability ([3]; first compound 0.8 µM): 0.787
- relative viability ([3]; first compound 2.53 µM): 0.867
- relative viability ([3]; first compound 8 µM): 0.781
- relative viability (Tanzisertib + Dasatinib; first compound 0.08 µM): 0.597
- relative viability (Tanzisertib + Dasatinib; first compound 0.253 µM): 0.585
- relative viability (Tanzisertib + Dasatinib; first compound 0.8 µM): 0.564
- relative viability (Tanzisertib + Dasatinib; first compound 2.53 µM): 0.515
- relative viability (Tanzisertib + Dasatinib; first compound 8 µM): 0.391

Cell Line: LXF-289
- relative viability ([1]; first compound 0.08 µM): 1.05
- relative viability ([1]; first compound 0.8 µM): 1.14
- relative viability ([1]; first compound 2.53 µM): 0.968
- relative viability ([1]; first compound 8 µM): 0.962
- relative viability ([2]; first compound 0.08 µM): 0.963
- relative viability ([2]; first compound 0.8 µM): 1.04
- relative viability ([2]; first compound 2.53 µM): 0.981
- relative viability ([2]; first compound 8 µM): 0.9
- relative viability ([3]; first compound 0.08 µM): 0.449
- relative viability ([3]; first compound 0.8 µM): 0.48
- relative viability ([3]; first compound 2.53 µM): 0.533
- relative viability ([3]; first compound 8 µM): 0.496
- relative viability (Tanzisertib + Dasatinib; first compound 0.08 µM): 0.233
- relative viability (Tanzisertib + Dasatinib; first compound 0.253 µM): 0.202
- relative viability (Tanzisertib + Dasatinib; first compound 0.8 µM): 0.222
- relative viability (Tanzisertib + Dasatinib; first compound 2.53 µM): 0.212
- relative viability (Tanzisertib + Dasatinib; first compound 8 µM): 0.215

Cell Line: NCI-H1299
- relative viability ([1]; first compound 0.08 µM): 1.02
- relative viability ([1]; first compound 0.8 µM): 1.01
- relative viability ([1]; first compound 2.53 µM): 1.02
- relative viability ([1]; first compound 8 µM): 0.999
- relative viability ([2]; first compound 0.08 µM): 0.987
- relative viability ([2]; first compound 0.8 µM): 1.14
- relative viability ([2]; first compound 2.53 µM): 1.05
- relative viability ([2]; first compound 8 µM): 0.924

Cell Line: HARA
- relative viability ([1]; first compound 0.08 µM): 1
- relative viability ([1]; first compound 0.8 µM): 1.28
- relative viability ([1]; first compound 2.53 µM): 1.1
- relative viability ([1]; first compound 8 µM): 1.15
- relative viability ([2]; first compound 0.08 µM): 0.938
- relative viability ([2]; first compound 0.8 µM): 1.07
- relative viability ([2]; first compound 2.53 µM): 0.983
- relative viability ([2]; first compound 8 µM): 0.939
- relative viability ([3]; first compound 0.08 µM): 0.516
- relative viability ([3]; first compound 0.8 µM): 0.403
- relative viability ([3]; first compound 2.53 µM): 0.43
- relative viability ([3]; first compound 8 µM): 0.491
- relative viability (Tanzisertib + Dasatinib; first compound 0.08 µM): 0.279
- relative viability (Tanzisertib + Dasatinib; first compound 0.253 µM): 0.246
- relative viability (Tanzisertib + Dasatinib; first compound 0.8 µM): 0.254
- relative viability (Tanzisertib + Dasatinib; first compound 2.53 µM): 0.278
- relative viability (Tanzisertib + Dasatinib; first compound 8 µM): 0.265
